{
  "source": "patent US20180028473A1",
  "about": "“NUTRIENTS SOLUTIONS” (Mitochondrial Substrate Invention Ltd., priority 2014, published 2018)",
  "key": {"[1]": {"tested_on": "Cognitively healthy young adult male Wistar rats", "assay": "Passive avoidance test, scopolamine given 7 days after end of supplementation", "type": "in vivo, rat", "method": "Cognitively healthy young adult male Wistar rats weighing 260-280 g were randomly ascribed to groups and supplemented daily with aqueous solution of 5 mg/kg of compound of formula (I) in water of the invention for seven consecutive days. Then, after the break in the supplementation for next seven days, scopolamine 1 mg/kg i.p. or vehicle was administered (at day 14) 30 min before the acquisition trial in the passive avoidance test (“Compound (I)+Scopolamine” group). In “Vehicle+Vehicle” group, rats received vehicle for seven consecutive days and then vehicle 30 min before the acquisition trial in the passive avoidance test at 14th day. In “Vehicle+Scopolamine” group, rats received vehicle for seven consecutive days and then scopolamine 1 mg/kg i.p. 30 min before the acquisition trial in the passive avoidance test at 14th day. […] Passive avoidance test requires the rats to behave contrary to their innate tendencies for preference of dark areas and avoidance of bright ones. The apparatus used in this test is composed by a dark compartment and a bright compartment. The latency to enter the dark chamber was measured using 300 s maximum trial duration. In the acquisition trial, the animal received a 0.4 mA electric shock for 3 s when entering the dark chamber. Retention trial was performed 24 h after the acquisition trial. […]"}, "[2]": {"conditions": "in vivo; cited from earlier work"}},
  "data": [
    {"smiles": "C[N+](C)(C)CCO", "note": "[compound of formula (I), choline succinate (2:1)]", "values": [
      {"measurement": "Relative risk of disturbance of cognitive function", "setting": "[1]; as compared to Vehicle+Scopolamine group", "value": 0.51},
      {"measurement": "Rate of disturbance of cognitive function (latency <207 s)", "setting": "[1]; retention trial, scopolamine 1 mg/kg i.p.", "value": 0.36},
      {"measurement": "elimination half-life", "setting": "[2]", "value": "less than 1.2 h"}
    ]}
  ]
}
